Measured values: US6730685B1, “Formulation of substituted benzimidazoles” (AstraZeneca AB, priority 1999, dated 2004)
In brackets after ≈: the same amount, converted by molar mass.

Experiment: Solubility of omeprazole and omeprazole sodium in water, dichloromethane and polyethylene glycol 400
Format: physicochemical
Protocol: The solubility of omeprazole (the non-ionised species) has been determined to approximately 0.1 g/l in water and approximately 100 g/l in dichloromethane at room temperature (22° C.). […] Omeprazole sodium is ionised and is therefore much more soluble in water compared with omeprazole and the opposite is applicable in the less polar solvent dichloromethane. The solubility of omeprazole (the non-ionised species) has been determined to approximately 20 g/l in polyethylene glycol 400. This means that the solubility is much better in polyethylene glycol, a less polar solvent, than in water. […] This means that the solubility in polyethylene glycol is much higher for omeprazole sodium than for omeprazole. The high solubility of omeprazole sodium in polyethylene glycol is very favourable regarding the formulation aspects of a parenteral pharmaceutical product.

Q: What does the source list for `COc1ccc2[n-]c([S+]([O-])Cc3ncc(C)c(OC)c3C)nc2c1.[Na+]` (stereo not drawn) [Omeprazole sodium]?
A: Solubility in dichloromethane (result in words): only slightly soluble; Solubility in polyethylene glycol 400 (result in words): freely soluble; Solubility in water (result in words): freely soluble

Q: With `COc1ccc2[nH]c([S+]([O-])Cc3ncc(C)c(OC)c3C)nc2c1` (stereo not drawn) [omeprazole] as the compound, how does the solubility (22 °C, organic solvent or mixture) read?
A: ~100 mg/mL (≈ 289 mM)

Q: And the solubility (22 °C, water)?
A: ~0.1 mg/mL (≈ 0.289 mM)

Q: And the solubility (organic solvent or mixture)?
A: ~20 mg/mL (≈ 57.9 mM)
